From patent US20080020947A1, “Novel microorganisms having oil biodegradability and method for bioremediation of oil-contaminated soil” (priority 2006, published 2008) come the findings set out here.

Data set [1] concerns mixed cultured strain of Examples 2, 6 and 7. Put plainly: Microbial growth promotion of biosurfactant 2-hexyl-3-hydroxy-decanoic acid (cfu per ml after culture). It counts as cell-based. The note with it: 0.1 in composition of Examples 16 and 17. Here is the method: These examples relate to an experiment of confirming whether the growth of microorganisms having oil biodegradability is promoted due to the addition of biosurfactant 2-hexyl-3-hydroxy-decanoic acid.
In this experiment, the mixed cultured strain of Examples 2, 6 and 7 was added to tryptic soy broth (TSB) and then cultured for 13 hours. In the culture process, the microbial strain was added into a 100-ml flask at an initial concentration of 4.9×10^6 cfu/ml to a work volume of 10 ml, and the inoculation level of the strain was 1% (w/v), i.e., 0.1 ml.
In Comparative Examples 7-10 and Examples 16 and 17, the microbial strain was cultured in media (10 g/L) at 30° C. for 24 hours, and then measured for colony-forming units (cfu) per ml to determine the degree of proliferation of microorganisms.
Specifically, a composition used in Comparative Examples 7-10 consisted of glucose, yeast extract, malt extract, Na2HPO4, KH2PO4, K2HPO4, MgSO4, CaCl2, FeSO4, CoCl2, ZnSO4, CuSO4 and MnSO4, and a composition used in Examples 16 and 17 consisted of glucose, yeast extract, malt extract, Na2HPO4, KH2PO4, K2HPO4, MgSO4, CaCl2, FeSO4, CoCl2, ZnSO4, CuSO4 and MnSO4, to which the biosurfactant 2-hexyl-3-hydroxy-decanoic acid was added.

The test system of data set [2] is Gordonia nitida NP1. Put plainly: Biosurfactant's ability to increase diesel oil degradation by Gordonia nitida NP1. It counts as cell-based. To be noted: acid 9 ppm. Here is the method:
(§1) For this reason, 2-hexyl-3-hydroxy-decanoic acid having 16 carbon atoms according to the present invention was added liquid media each containing 10,000 ppm or 20,000 ppm of diesel oil and mineral medium (NH4NO3, 1 g/L; MgSO4, 0.2 g/L; CaCl2, 0.02 g/L; FeCl2, 0.05 g/L; KH2PO4, 1 g/L; K2HPO4, 1 g/L; pH 7.0). Then, the media were inoculated with each of Rodococcus baikoneurensis EN3 of Example 2 and Gordonia nitida NP1 of Example 6 and cultured at 30° C. for 7 days. Then, an increase in the oil biodegradability of each of the microbial strains was measured using gas chromatography.
FIG. 10 is a graphic diagram showing an increase in the diesel oil degradability of Gordonia nitida NP1, caused by the synthetic biosurfactant 2-hexyl-3-hydroxy-decanoic acid, at an initial diesel concentration of 15,000 ppm. In FIG. 10, the initial inoculation level of […] is 6×10^4 cfu/ml, and the initial concentration of diesel oil is 15,000 ppm. Also, the initial concentrations of 2-hexyl-3-hydroxy-decanoic acid were 9 ppm (▾), 90 ppm (∇) and 900 ppm (▪), the symbol “[…]” indicates a microorganism-uninoculated group (control group 1), and the symbol “∘” indicates a group (control group 2), which was inoculated with microorganisms, but not injected with 2-hexyl-3-hydroxy-decanoic acid. […]

Data set [3] relates to Rodococcus baikoneurensis EN3. Put plainly: Biosurfactant's ability to increase diesel oil degradation by Rodococcus baikoneurensis EN3. It counts as cell-based. The note with it: initial diesel 20,000 ppm; acid 10 ppm, 50 ppm and 100 ppm; about 30% without acid. As for the experimental part: as §1
FIG. 9 is a graphic diagram showing an increase in the diesel oil degradability of Rodococcus baikoneurensis EN3, caused by the synthetic biosurfactant 2-hexyl-3-hydroxy-decanoic acid, at an initial diesel concentration of 20,000 ppm. In FIG. 9, the initial inoculation level of Rodococcus baikoneurensis EN3 is 6×10^4 cfu/ml, and the initial concentration of diesel oil is 20,000 ppm. Also, the initial concentrations of 2-hexyl-3-hydroxy-decanoic acid are 10 ppm (∘), 50 ppm (□) and 100 ppm (Δ), the symbol “•” indicates a microorganism-uninoculated group (control group 1), and the symbol “▪” indicates a group (control group 2), which was inoculated with microorganisms, but not injected with 2-hexyl-3-hydroxy-decanoic acid.

Data set [4] is described as follows: Critical micelle concentration. It counts as physicochemical.

`CCCCCCCC(O)C(CCCCCC)C(=O)O` (centres unmarked) [2-hexyl-3-hydroxy-decanoic acid]: in data set [1], the “effect of addition on growth of the microorganisms” value is reported as “promotion of growth”. The “change in diesel oil degradation rate of the microbial strain with acid added” value in data set [2] (90 ppm and 900 ppm, initial diesel 15,000 ppm and 20,000 ppm (FIGS. 10, 11)) is “great increase”. For the same compound, the “change in oil degradation rate of the microbial strain with acid added” value in data set [2] (initial diesel 20,000 ppm) is “did not show an increase”. Moreover, the “oil biodegradation rate of the microbial strain with acid added” value in data set [3] is listed as “about 70%”. Besides, the “critical micelle concentration (cmc)” value in data set [4] worked out at 37.1 ppm.
